Results published in patent US20160106654A1, “ADDITIVE OR SYNERGISTIC SUNSCREEN, ANTIOXIDANT, AND DNA REPAIR ENZYME COMPOSITION” (US CosmeceuTechs, LLC, priority 2014, published 2016).

Test system: Normal human epidermal keratinocytes (NHEK)
Assay: NHEK, UVB, and DNA damage analysis assay
Format: cell-based
Conditions: 5 μg/mL, n = 2

Structure (SMILES)	8-oxoG inhibition (%)	CPD inhibition (%)
O=C(O[C@@H]1Cc2c(O)cc(O)cc2O[C@@H]1c1cc(O)c(O)c(O)c1)c1cc(O)c(O)c(O)c1 [Epigallocatechin Gallate]	41.9	44.5
NCCC(=O)N[C@@H](Cc1cnc[nH]1)C(=O)O [L-Carnosine]	45.0	51.6

Same assay, conditions: Homo sapiens, light or radiation study, 5 μg/mL, n = 2, read-out: 8-oxoG inhibition (%)

Structure (SMILES)	inhibition at 5 µg/mL [%]
Oc1ccc(C=Cc2cc(O)cc(O)c2)cc1 [Resveratrol]	40.6
O=C1O[C@H]([C@@H](O)CO)C(O)=C1O [L-Ascorbic Acid]	44.1
O=C(/C=C/c1ccc(O)c(O)c1)O[C@@H]1C[C@](O)(C(=O)O)C[C@@H](O)[C@H]1O [Chlorogenic Acid]	52.5
COc1cc(/C=C/C(=O)O)ccc1O [Ferulic Acid]	41.1
O=c1c(O)c(-c2ccc(O)c(O)c2)oc2cc(O)cc(O)c12 [Quercetin]	42.4

Same assay, conditions: Homo sapiens, light or radiation study, 5 μg/mL, n = 2, read-out: CPD inhibition (%)

Structure (SMILES)	inhibition at 5 µg/mL [%]
Oc1ccc(C=Cc2cc(O)cc(O)c2)cc1 [Resveratrol]	51.9
O=C1O[C@H]([C@@H](O)CO)C(O)=C1O [L-Ascorbic Acid]	33.1
O=C(/C=C/c1ccc(O)c(O)c1)O[C@@H]1C[C@](O)(C(=O)O)C[C@@H](O)[C@H]1O [Chlorogenic Acid]	36
COc1cc(/C=C/C(=O)O)ccc1O [Ferulic Acid]	15.7
O=c1c(O)c(-c2ccc(O)c(O)c2)oc2cc(O)cc(O)c12 [Quercetin]	45.7

Test system: Normal human epidermal keratinocytes (NHEK)
Assay: NHEK, UVB, and protein carbonylation assay
Format: cell-based
Conditions: 5 μg/mL, n = 2
Source text: The antioxidant(s) are preferably selected from those which protect against and/or prevent protein carbonylation (PC), protein glycation, lipidation, lipid glycation, protein alkylation, and/or lipid alkylation. Our system of evaluation from US 2006/0171886 A1, which may be modified to include a protein carbonylation, protein glycation, and/or protein alkylation analysis, may be used to evaluate the effectiveness of substances. Test results for selected antioxidants in the protection of human skin against protein carbonylation are shown below in Table 2.

Structure (SMILES)	PC inhibition (%)
O=C(O[C@@H]1Cc2c(O)cc(O)cc2O[C@@H]1c1cc(O)c(O)c(O)c1)c1cc(O)c(O)c(O)c1 [Epigallocatechin Gallate]	100
C[N+](C)(C)[C@@H](Cc1c[nH]c(=S)[nH]1)C(=O)[O-] [L-Ergothioneine]	100
NCCC(=O)N[C@@H](Cc1cnc[nH]1)C(=O)O [L-Carnosine]	100

Same assay, conditions: Homo sapiens, light or radiation study, 5 μg/mL, n = 2, read-out: PC inhibition (%)

Structure (SMILES)	inhibition at 5 µg/mL [%]
Oc1ccc(C=Cc2cc(O)cc(O)c2)cc1 [Resveratrol]	0
O=C1O[C@H]([C@@H](O)CO)C(O)=C1O [L-Ascorbic Acid]	87.2
O=C(/C=C/c1ccc(O)c(O)c1)O[C@@H]1C[C@](O)(C(=O)O)C[C@@H](O)[C@H]1O [Chlorogenic Acid]	0
COc1cc(/C=C/C(=O)O)ccc1O [Ferulic Acid]	0
O=c1c(O)c(-c2ccc(O)c(O)c2)oc2cc(O)cc(O)c12 [Quercetin]	0

Test system: cyclobutane pyrimidine dimer (CPD) and 8-oxo-7,8-dihydro-2′-deoxyguanosine (8OHdG) formation, and protein carbonylation
Assay: Combined protection score (CPD, 8OHdG, protein carbonylation), normalized for concentration
Conditions: not given

Structure (SMILES)	8oxo Score	CPDs Score	PC Score
Oc1ccc(C=Cc2cc(O)cc(O)c2)cc1 [Resveratrol]	18	17	12
O=C(O[C@@H]1Cc2c(O)cc(O)cc2O[C@@H]1c1cc(O)c(O)c(O)c1)c1cc(O)c(O)c(O)c1 [Epigallocatechin Gallate]	18	15	3
O=C1O[C@H]([C@@H](O)CO)C(O)=C1O [L-Ascorbic Acid]	20	16	0
Cc1c(C)c2c(c(C)c1O)CC[C@@](C)(CCC[C@H](C)CCC[C@H](C)CCCC(C)C)O2 [α-Tocopherol]	18	16	12
COc1cc(/C=C/C(=O)O)ccc1O [Ferulic Acid]	19	17	10
C[N+](C)(C)[C@@H](Cc1c[nH]c(=S)[nH]1)C(=O)[O-] [L-Ergothioneine]	14	17	16
NCCC(=O)N[C@@H](Cc1cnc[nH]1)C(=O)O [L-Carnosine]	17	18	17

Same assay, conditions: a maximum total score is 60

Structure (SMILES)	Total Score
Oc1ccc(C=Cc2cc(O)cc(O)c2)cc1 [Resveratrol]	47
O=C(O[C@@H]1Cc2c(O)cc(O)cc2O[C@@H]1c1cc(O)c(O)c(O)c1)c1cc(O)c(O)c(O)c1 [Epigallocatechin Gallate]	36
O=C1O[C@H]([C@@H](O)CO)C(O)=C1O [L-Ascorbic Acid]	36
Cc1c(C)c2c(c(C)c1O)CC[C@@](C)(CCC[C@H](C)CCC[C@H](C)CCCC(C)C)O2 [α-Tocopherol]	46
COc1cc(/C=C/C(=O)O)ccc1O [Ferulic Acid]	46
C[N+](C)(C)[C@@H](Cc1c[nH]c(=S)[nH]1)C(=O)[O-] [L-Ergothioneine]	47
NCCC(=O)N[C@@H](Cc1cnc[nH]1)C(=O)O [L-Carnosine]	52
